Where two headings read alike, the source gives them in different places.
Legend:
[1] = system: HCC1954 cells; assay: Antiproliferation assay (Cell-titer Glo, 72 h); format: cell-based; conditions: Homo sapiens, 72 h, means and standard deviations from three independent assays, read-out: HCC1954 (GI50/μM)
Description: (§1) Breast-cancer cell lines (SK-Br3, HCC-1954) were purchased from Korea Cell Line Bank (Seoul, Korea) and were cultured in RPMI medium supplemented with 10% FBS and penicillin/streptomycin (Welgene, Seoul, Korea). All cell lines were maintained at 37 °C in a cell incubator in the presence of 5% CO2.
(§2) Breast-cancer cells in culture media (100 μL volume/well, 5000 SK-Br3 cells/well, 1000 HCC-1954 cells/well) were seeded in tissue culture-treated 96-well plates, and incubated at a cell incubator for 24 h. Serially diluted compounds (3-fold, 10 point from 10 mM, duplicated) were pre-plated and 500 nL of compound solutions were pin-transferred to the cells in the assay plates using pintool system (JANUS liquid handler, PerkinElmer, Waltham, MA, USA) and incubated at a cell incubator for 72 h. Cell-titer Glo^TM reagent (50 μL, Promega Corp., Madison, WI, USA) was added to each well, and the luminescence signal was read using an Envision^TM plate reader (PerkinElmer, Waltham, MA, USA). The titration curve fitting and IC50 values were generated using Prism 7.0 s/w (GraphPad, San Diego, CA, USA).

[2] = system: SK-Br3 cells; assay: Antiproliferation assay (Cell-titer Glo, 72 h); format: cell-based; conditions: Homo sapiens, SK-BR-3; 72 h; means and standard deviations from three independent assays; read-out: SK-Br3 (GI50/μM)
Description: as §1, §2

[3] = In vitro liver microsomal stability; format: in vitro ADME; conditions: liver microsomes, pH 7.4, 30 m at 37 °C with NADPH regeneration system
Description: Each compound (final 1 μM, duplicated) was added to each 0.1 M PBS solution (pH 7.4) containing liver microsome of three different species (human, dog, mouse). After a brief (5 m) incubation at 37 °C, the NADPH regeneration system (Promega Corp., Madison, WI, USA) was added, then the mixture was incubated at 37 °C for 30 m. The reaction was terminated by adding acetonitrile containing an internal standard (chlorpropamide), then the mixture was centrifuged at 15,000 rpm, 4 °C for 5 m. The supernatant solution was injected to LC/MS/MS system (TSQ Vantage Triple-Stage Quadrupole Mass Spectrometer, ThermoFisher Scientific, Waltham, MA, USA). The remaining substrates were analyzed with Xcalibur 4.4 s/w using an MRM (multiple reaction monitoring) quantitation mode.

[4] = molecular target: T1, CYP1A2 (Homo sapiens, UniProt P05177); assay: CYP inhibition; format: in vitro ADME
T1 sequence (P05177 1-516): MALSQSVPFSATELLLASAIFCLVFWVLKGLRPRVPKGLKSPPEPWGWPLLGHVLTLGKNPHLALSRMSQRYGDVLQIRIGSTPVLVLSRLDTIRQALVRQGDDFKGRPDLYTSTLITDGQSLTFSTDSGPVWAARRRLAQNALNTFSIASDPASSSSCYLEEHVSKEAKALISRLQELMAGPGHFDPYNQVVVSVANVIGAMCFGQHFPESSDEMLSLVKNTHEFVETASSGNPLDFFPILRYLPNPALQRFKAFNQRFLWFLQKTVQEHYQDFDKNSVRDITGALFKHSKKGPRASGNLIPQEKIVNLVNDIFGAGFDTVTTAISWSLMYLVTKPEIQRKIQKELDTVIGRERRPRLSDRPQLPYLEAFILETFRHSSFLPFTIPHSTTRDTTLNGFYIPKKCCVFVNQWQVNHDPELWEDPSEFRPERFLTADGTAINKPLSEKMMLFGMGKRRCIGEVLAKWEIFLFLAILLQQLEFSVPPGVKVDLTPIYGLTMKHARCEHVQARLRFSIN
Description: Table 6 In vitro liver metabolic stability and activity against CYPs of potent analogues. | column: CYP % Activity at 10 μM / 1A2

[5] = molecular target: CYP2C9 (Homo sapiens, UniProt P11712); assay: CYP inhibition; format: in vitro ADME
Description: Table 6 In vitro liver metabolic stability and activity against CYPs of potent analogues. | column: CYP % Activity at 10 μM / 2C9

[6] = molecular target: CYP2C19 (Homo sapiens, UniProt P33261); assay: CYP inhibition; format: in vitro ADME
Description: Table 6 In vitro liver metabolic stability and activity against CYPs of potent analogues. | column: CYP % Activity at 10 μM / 2C19

[7] = molecular target: CYP2D6 (Homo sapiens, UniProt P10635); assay: CYP inhibition; format: in vitro ADME
Description: Table 6 In vitro liver metabolic stability and activity against CYPs of potent analogues. | column: CYP % Activity at 10 μM / 2D6

[8] = molecular target: CYP3A4 (Homo sapiens, UniProt P08684); assay: CYP inhibition; format: in vitro ADME
Description: Table 6 In vitro liver metabolic stability and activity against CYPs of potent analogues. | column: CYP % Activity at 10 μM / 3A4

[9] = molecular target: CDK12/CyclinK (Homo sapiens, UniProt Q9NYV4); assay: In vitro CDK12/cyclinK kinase assay; format: biochemical; parameters: purchased Reaction Biology Corp. (CRO that ran the assay)
Description: In vitro CDK12/cyclinK assays for all compounds and in vitro kinome-wide inhibition profiling of 30d at 10 μM were performed by a CRO company (Reaction Biology Corp., San Diego, CA, USA).

[10] = Table 5, means and standard deviations from three independent assays, read-out: CDK12/CyclinK (IC50/μM)

Chain of CYP2C19 (P33261 whole entry): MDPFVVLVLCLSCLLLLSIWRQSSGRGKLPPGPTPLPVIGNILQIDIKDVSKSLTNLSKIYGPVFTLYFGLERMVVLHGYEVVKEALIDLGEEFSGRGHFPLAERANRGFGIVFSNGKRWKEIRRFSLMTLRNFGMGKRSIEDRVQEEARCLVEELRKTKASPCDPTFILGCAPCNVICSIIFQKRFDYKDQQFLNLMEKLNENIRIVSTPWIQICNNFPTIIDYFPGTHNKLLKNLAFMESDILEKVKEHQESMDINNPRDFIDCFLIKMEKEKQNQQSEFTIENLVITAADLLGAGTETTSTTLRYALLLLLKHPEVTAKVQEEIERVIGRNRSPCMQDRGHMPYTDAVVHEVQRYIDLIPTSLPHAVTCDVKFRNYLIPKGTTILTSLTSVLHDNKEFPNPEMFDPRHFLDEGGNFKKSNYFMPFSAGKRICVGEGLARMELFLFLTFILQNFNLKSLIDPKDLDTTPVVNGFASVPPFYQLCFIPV
Chain of CYP2C9 (P11712 whole entry): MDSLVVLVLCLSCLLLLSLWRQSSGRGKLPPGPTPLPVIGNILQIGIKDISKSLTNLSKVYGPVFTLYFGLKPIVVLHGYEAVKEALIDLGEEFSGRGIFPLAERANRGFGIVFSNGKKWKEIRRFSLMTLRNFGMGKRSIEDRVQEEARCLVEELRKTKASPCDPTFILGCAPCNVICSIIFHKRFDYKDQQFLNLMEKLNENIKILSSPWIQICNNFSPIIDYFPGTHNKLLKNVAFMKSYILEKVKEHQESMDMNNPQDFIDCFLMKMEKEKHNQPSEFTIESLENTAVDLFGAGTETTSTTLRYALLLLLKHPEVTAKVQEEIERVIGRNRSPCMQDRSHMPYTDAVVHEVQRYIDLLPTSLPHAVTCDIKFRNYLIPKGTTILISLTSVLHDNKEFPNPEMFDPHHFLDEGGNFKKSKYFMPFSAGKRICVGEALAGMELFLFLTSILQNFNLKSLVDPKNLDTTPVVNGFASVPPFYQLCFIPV
Chain of CDK12/CyclinK (Q9NYV4 whole entry): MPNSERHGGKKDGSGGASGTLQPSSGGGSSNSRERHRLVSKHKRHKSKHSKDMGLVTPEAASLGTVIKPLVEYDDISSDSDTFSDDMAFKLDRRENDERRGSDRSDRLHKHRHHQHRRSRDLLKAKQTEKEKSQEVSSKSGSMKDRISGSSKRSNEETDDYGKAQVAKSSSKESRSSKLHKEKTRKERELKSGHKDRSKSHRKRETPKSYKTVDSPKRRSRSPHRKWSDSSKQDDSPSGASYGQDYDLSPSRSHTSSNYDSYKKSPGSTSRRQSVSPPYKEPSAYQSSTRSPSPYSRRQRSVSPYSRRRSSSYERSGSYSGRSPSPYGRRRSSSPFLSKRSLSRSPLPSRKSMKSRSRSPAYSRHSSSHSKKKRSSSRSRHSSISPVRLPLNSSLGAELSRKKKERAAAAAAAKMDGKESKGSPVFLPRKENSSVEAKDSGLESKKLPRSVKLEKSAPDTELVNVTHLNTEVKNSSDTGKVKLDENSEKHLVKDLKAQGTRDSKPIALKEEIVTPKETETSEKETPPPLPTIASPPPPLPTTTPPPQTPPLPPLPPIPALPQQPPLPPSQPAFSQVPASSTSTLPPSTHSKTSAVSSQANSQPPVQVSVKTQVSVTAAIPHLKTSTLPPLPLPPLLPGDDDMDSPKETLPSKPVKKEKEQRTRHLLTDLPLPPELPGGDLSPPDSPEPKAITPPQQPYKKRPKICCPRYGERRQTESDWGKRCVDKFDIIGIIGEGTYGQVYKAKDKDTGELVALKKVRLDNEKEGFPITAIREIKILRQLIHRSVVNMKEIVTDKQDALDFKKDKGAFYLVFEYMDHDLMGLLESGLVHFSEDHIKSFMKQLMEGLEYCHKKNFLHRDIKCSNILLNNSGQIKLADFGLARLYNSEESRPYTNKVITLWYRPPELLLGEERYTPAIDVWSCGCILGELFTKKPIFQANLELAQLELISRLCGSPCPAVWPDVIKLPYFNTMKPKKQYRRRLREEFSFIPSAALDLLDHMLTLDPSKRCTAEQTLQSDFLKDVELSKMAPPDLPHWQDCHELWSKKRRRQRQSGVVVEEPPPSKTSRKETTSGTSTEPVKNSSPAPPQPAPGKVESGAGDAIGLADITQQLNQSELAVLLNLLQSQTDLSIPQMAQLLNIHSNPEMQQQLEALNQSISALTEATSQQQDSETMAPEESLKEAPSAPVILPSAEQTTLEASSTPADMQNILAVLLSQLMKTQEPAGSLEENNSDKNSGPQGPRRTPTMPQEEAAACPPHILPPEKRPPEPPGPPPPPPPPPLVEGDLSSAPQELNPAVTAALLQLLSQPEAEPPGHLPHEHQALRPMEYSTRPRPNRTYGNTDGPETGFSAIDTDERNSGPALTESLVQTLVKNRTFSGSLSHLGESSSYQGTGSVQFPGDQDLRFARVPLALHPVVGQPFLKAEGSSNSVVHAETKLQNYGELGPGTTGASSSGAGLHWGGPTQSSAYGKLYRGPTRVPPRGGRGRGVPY
Chain of CDK12/CyclinK (O75909 whole entry partner): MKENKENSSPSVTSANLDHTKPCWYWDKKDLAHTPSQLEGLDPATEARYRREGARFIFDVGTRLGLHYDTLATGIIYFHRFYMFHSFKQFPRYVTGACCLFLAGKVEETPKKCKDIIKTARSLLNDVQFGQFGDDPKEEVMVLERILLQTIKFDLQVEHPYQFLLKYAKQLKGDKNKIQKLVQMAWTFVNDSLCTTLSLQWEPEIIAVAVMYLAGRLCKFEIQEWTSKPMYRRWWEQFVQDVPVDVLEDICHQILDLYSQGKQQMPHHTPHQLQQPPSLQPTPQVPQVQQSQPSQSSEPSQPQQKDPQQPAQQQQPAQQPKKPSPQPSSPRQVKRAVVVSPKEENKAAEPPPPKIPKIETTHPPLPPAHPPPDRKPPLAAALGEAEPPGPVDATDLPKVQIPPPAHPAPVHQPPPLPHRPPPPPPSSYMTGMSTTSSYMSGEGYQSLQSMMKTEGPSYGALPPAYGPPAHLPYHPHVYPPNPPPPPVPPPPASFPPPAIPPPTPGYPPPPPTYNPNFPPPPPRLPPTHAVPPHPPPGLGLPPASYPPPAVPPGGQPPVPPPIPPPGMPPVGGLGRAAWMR
Chain of CYP3A4 (P08684 whole entry): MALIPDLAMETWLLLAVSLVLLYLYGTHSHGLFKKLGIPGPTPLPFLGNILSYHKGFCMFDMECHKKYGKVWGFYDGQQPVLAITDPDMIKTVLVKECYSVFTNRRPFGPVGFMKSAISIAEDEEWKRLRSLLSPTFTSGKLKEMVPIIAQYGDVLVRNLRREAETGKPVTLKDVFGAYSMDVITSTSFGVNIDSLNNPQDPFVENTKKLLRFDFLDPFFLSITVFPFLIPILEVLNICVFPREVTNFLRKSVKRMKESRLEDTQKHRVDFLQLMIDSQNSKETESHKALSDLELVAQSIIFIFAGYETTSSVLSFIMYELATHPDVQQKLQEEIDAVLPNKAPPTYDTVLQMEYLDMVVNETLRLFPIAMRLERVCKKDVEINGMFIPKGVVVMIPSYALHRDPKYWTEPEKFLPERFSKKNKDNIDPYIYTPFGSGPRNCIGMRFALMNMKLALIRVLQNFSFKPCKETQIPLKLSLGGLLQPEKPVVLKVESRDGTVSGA
Chain of CYP2D6 (P10635 whole entry): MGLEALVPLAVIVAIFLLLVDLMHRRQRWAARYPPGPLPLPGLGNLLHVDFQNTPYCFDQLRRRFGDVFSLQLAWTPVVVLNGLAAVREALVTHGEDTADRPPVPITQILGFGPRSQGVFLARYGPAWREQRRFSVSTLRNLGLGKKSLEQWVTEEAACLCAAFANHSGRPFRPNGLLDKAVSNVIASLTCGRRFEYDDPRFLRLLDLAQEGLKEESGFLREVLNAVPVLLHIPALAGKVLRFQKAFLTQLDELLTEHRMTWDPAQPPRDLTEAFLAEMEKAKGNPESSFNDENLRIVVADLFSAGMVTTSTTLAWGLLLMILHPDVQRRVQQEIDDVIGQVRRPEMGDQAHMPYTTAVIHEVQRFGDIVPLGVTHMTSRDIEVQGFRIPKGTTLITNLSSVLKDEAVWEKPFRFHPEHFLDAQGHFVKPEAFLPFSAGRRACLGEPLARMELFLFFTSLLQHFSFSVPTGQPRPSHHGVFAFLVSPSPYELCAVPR

| Compound | GI50 [1] [µM] | GI50 [2] [µM] | remaining at 30 min, 1 μM ([3]; dog) [%] | remaining at 30 min, 1 μM ([3]; human) [%] | remaining at 30 min, 1 μM ([3]; mouse) [%] | CYP % Activity at 10 μM 1A2 [4] [%] | CYP % Activity at 10 μM 2C9 [5] [%] | CYP % Activity at 10 μM 2C19 [6] [%] | CYP % Activity at 10 μM 2D6 [7] [%] | CYP % Activity at 10 μM 3A4 [8] [%] | IC50 [9, 10] [µM] | IC50 ([9]; read-out: CDK12/cyclinK IC50) [µM] |
| --- | --- | --- | --- | --- | --- | --- | --- | --- | --- | --- | --- | --- |
| CCn1cnc2c(NCc3ccc(-c4ccnc(C)c4)nc3)nc(-c3ccc(N)nc3)nc21 [Compound 30a, 2-(6-Aminopyridin-3-yl)-9-ethyl-N-((2′-methyl-[2,4′-bipyridin]-5-yl)methyl)-9H-purin-6-amine] | 0.104 ± 0.003 | 0.136 ± 0.016 | 45.1 | 32.2 | 35.3 | 59.3 | 73.0 | 76.8 | 89.6 | 38.9 | 0.029 ± 0.015 | < 0.03 |
| CCn1cnc2c(NCc3ccc(-c4ccnc(C)c4)nc3)nc(-c3cnc(N)nc3)nc21 [Compound 30b, 2-(2-Aminopyrimidin-5-yl)-9-ethyl-N-((2′-methyl-[2,4′-bipyridin]-5-yl)methyl)-9H-purin-6-amine] | 0.08 ± 0.007 | 0.09 ± 0.008 | 53.6 | 40.6 | 45 | 74.9 | 82.9 | 75.4 | 85.7 | 72.4 | 0.028 ± 0.008 | < 0.03 |
| CCn1cnc2c(NCc3ccc(-c4ccnc(C)c4)nc3)nc(-c3cncnc3)nc21 [Compound 30c, 9-Ethyl-N-((2′-methyl-[2,4′-bipyridin]-5-yl)methyl)-2-(pyrimidin-5-yl)-9H-purin-6-amine] | 0.157 ± 0.022 | 0.189 ± 0.057 | 79.5 | 27.3 | 34 | 68.6 | 67.5 | 73.9 | 88.8 | 31.8 | 0.064 ± 0.012 | – |

From PMC9506414, “Novel 2,6,9-Trisubstituted Purines as Potent CDK Inhibitors Alleviating Trastuzumab-Resistance of HER2-Positive Breast Cancers” (Pharmaceuticals, 2022)
